Experimental data as given in ChEMBL document CHEMBL1201861, “Genomics of Drug Sensitity in Cancer screening data, Wellcome Trust Sanger Institute”.

How the values were obtained:
Assay in all cases: cells
Type in all cases: functional, cell-based
Conditions in all cases: Homo sapiens
[1] = test system: ES5;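 further: growth inhibition of human ES5 cells, read out by a cell viability assay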
Description: SANGER: Inhibition of human ES5 cell growth in a cell viability assay.

[2] = test system: COLO-829
Description: SANGER: Inhibition of human COLO-829 cell growth in a cell viability assay.

[3] = test system: A3-KAW;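 further: growth inhibition of human A3-KAW cells, read out with a cell viability assay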
Description: SANGER: Inhibition of human A3-KAW cell growth in a cell viability assay.

[4] = test system: LOX IMVI
Description: SANGER: Inhibition of human LOXIMVI cell growth in a cell viability assay.

[5] = test system: NOS-1;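 further: growth inhibition of the human NOS-1 cell line, read out with a cell viability assay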
Description: SANGER: Inhibition of human NOS-1 cell growth in a cell viability assay.

[6] = test system: LB2241-RCC;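 further: cell viability assay measuring how strongly the cultured human renal carcinoma line is prevented from growing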
Description: SANGER: Inhibition of human LB2241-RCC cell growth in a cell viability assay.

[7] = test system: NCI-H2126;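 further: growth inhibition of the cancer cell line, determined with a cell viability readout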
Description: SANGER: Inhibition of human NCI-H2126 cell growth in a cell viability assay.

[8] = test system: TE-1;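 further: growth inhibition of the human TE-1 cell line, read out with a cell viability assay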
Description: SANGER: Inhibition of human TE-1 cell growth in a cell viability assay.

[9] = test system: IST-MEL1;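 further: growth inhibition of the cell line, read out with a cell viability assay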
Description: SANGER: Inhibition of human IST-MEL1 cell growth in a cell viability assay.

[10] = test system: TE-8;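 further: growth inhibition of TE-8 cells, measured with a cell viability readout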
Description: SANGER: Inhibition of human TE-8 cell growth in a cell viability assay.

[11] = test system: HAL-01;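 further: growth inhibition of human HAL-01 cells, read out with a cell viability assay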
Description: SANGER: Inhibition of human HAL-01 cell growth in a cell viability assay.

[12] = test system: KG-1;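 further: growth inhibition of KG-1 cells, read out by a cell viability assay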
Description: SANGER: Inhibition of human KG-1 cell growth in a cell viability assay.

[13] = test system: LXF-289 cell line
Description: SANGER: Inhibition of human LXF-289 cell growth in a cell viability assay.

[14] = test system: KGN;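 further: growth inhibition of KGN cells, read out with a cell viability assay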
Description: SANGER: Inhibition of human KGN cell growth in a cell viability assay.

[15] = test system: HT
Description: SANGER: Inhibition of human HT cell growth in a cell viability assay.

[16] = test system: LC-2-ad;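 further: growth inhibition of human LC-2-ad cells, read out with a cell viability assay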
Description: SANGER: Inhibition of human LC-2-ad cell growth in a cell viability assay.

[17] = test system: ACN;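 further: growth inhibition of the human ACN cell line, read out via cell viability testing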
Description: SANGER: Inhibition of human ACN cell growth in a cell viability assay.

[18] = test system: NKM-1;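 further: growth inhibition of NKM-1 cells, read out with a cell viability assay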
Description: SANGER: Inhibition of human NKM-1 cell growth in a cell viability assay.

[19] = test system: SK-UT-1;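 further: growth inhibition of SK-UT-1 cells, measured by a cell viability assay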
Description: SANGER: Inhibition of human SK-UT-1 cell growth in a cell viability assay.

[20] = test system: HCC2218;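 further: cell viability assay read-out, with IC50 given as the concentration that inhibits growth of the cell line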
Description: SANGER: Inhibition of human HCC2218 cell growth in a cell viability assay.

[21] = test system: SW872;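 further: growth inhibition of SW872 cells, read out by a viability assay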
Description: SANGER: Inhibition of human SW872 cell growth in a cell viability assay.

[22] = test system: NCI-H446;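 further: growth inhibition of NCI-H446 cells determined by a cell viability assay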
Description: SANGER: Inhibition of human NCI-H446 cell growth in a cell viability assay.

[23] = test system: CTV-1;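 further: growth inhibition of the cell line, read out with a cell viability assay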
Description: SANGER: Inhibition of human CTV-1 cell growth in a cell viability assay.

[24] = test system: K562
Description: SANGER: Inhibition of human K-562 cell growth in a cell viability assay.

[25] = test system: NCI-H69;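 further: growth inhibition of the cell line, read out with a cell viability assay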
Description: SANGER: Inhibition of human NCI-H69 cell growth in a cell viability assay.

[26] = test system: NCI-H226;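 further: cell viability read-out used to gauge growth inhibition of the cells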
Description: SANGER: Inhibition of human NCI-H226 cell growth in a cell viability assay.

[27] = test system: LU-139
Description: SANGER: Inhibition of human LU-139 cell growth in a cell viability assay.

[28] = test system: EW-3;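 further: cell viability assay read-out, IC50 reflects inhibition of growth of the EW-3 cells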
Description: SANGER: Inhibition of human EW-3 cell growth in a cell viability assay.

[29] = test system: NOMO-1;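 further: growth inhibition of human NOMO-1 cells measured by a cell viability assay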
Description: SANGER: Inhibition of human NOMO-1 cell growth in a cell viability assay.

[30] = test system: COLO-800;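 further: growth inhibition of COLO-800 cells, read out with a cell viability assay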
Description: SANGER: Inhibition of human COLO-800 cell growth in a cell viability assay.

[31] = test system: MFH-ino;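 further: growth inhibition of human MFH-ino cells, read out by a cell viability assay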
Description: SANGER: Inhibition of human MFH-ino cell growth in a cell viability assay.

[32] = test system: BE-13;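 further: growth inhibition of human BE-13 cells, measured with a cell viability assay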
Description: SANGER: Inhibition of human BE-13 cell growth in a cell viability assay.

[33] = test system: VA-ES-BJ;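 further: growth inhibition of the VA-ES-BJ cell line, read out by a cell viability assay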
Description: SANGER: Inhibition of human VA-ES-BJ cell growth in a cell viability assay.

[34] = test system: SCH;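 further: growth inhibition of human SCH cells, read out in a cell viability assay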
Description: SANGER: Inhibition of human SCH cell growth in a cell viability assay.

[35] = test system: KARPAS-299
Description: SANGER: Inhibition of human KARPAS-299 cell growth in a cell viability assay.

[36] = test system: SW 954;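 further: growth inhibition of SW954 human cancer cells, read out as cell viability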
Description: SANGER: Inhibition of human SW954 cell growth in a cell viability assay.

[37] = test system: LS-513
Description: SANGER: Inhibition of human LS-513 cell growth in a cell viability assay.

[38] = test system: A4-Fuk;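 further: growth inhibition of A4-Fuk cells, read out by a cell viability assay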
Description: SANGER: Inhibition of human A4-Fuk cell growth in a cell viability assay.

[39] = test system: BV-173
Description: SANGER: Inhibition of human BV-173 cell growth in a cell viability assay.

[40] = test system: D-502MG
Description: SANGER: Inhibition of human D-502MG cell growth in a cell viability assay.

[41] = test system: LB771-HNC;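 further: growth inhibition of LB771-HNC human cells, read out with a cell viability assay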
Description: SANGER: Inhibition of human LB771-HNC cell growth in a cell viability assay.

[42] = test system: NCI-H510A;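 further: growth inhibition of NCI-H510A cells, read out with a cell viability assay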
Description: SANGER: Inhibition of human NCI-H510A cell growth in a cell viability assay.

[43] = test system: NB6;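 further: growth inhibition of NB6 cells, read out by a cell viability assay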
Description: SANGER: Inhibition of human NB6 cell growth in a cell viability assay.

[44] = test system: DU-4475
Description: SANGER: Inhibition of human DU-4475 cell growth in a cell viability assay.

[45] = test system: DMS-79;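 further: growth inhibition measured with a cell viability assay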
Description: SANGER: Inhibition of human DMS-79 cell growth in a cell viability assay.

[46] = test system: OS-RC-2;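 further: growth inhibition of human OS-RC-2 cells, measured by a cell viability assay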
Description: SANGER: Inhibition of human OS-RC-2 cell growth in a cell viability assay.

[47] = test system: BB49-HNC;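 further: cell viability assay read-out, reported as inhibition of BB49-HNC cell growth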
Description: SANGER: Inhibition of human BB49-HNC cell growth in a cell viability assay.

[48] = test system: ES7;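 further: growth inhibition of cultured human ES7 cells, read out as cell viability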
Description: SANGER: Inhibition of human ES7 cell growth in a cell viability assay.

[49] = test system: SK-MEL-2;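 further: growth inhibition of human SK-MEL-2 cells measured with a cell viability assay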
Description: SANGER: Inhibition of human SK-MEL-2 cell growth in a cell viability assay.

[50] = test system: NCI-H1092;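 further: cell growth inhibition measured with a cell viability assay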
Description: SANGER: Inhibition of human NCI-H1092 cell growth in a cell viability assay.

[51] = test system: TGBC1TKB;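 further: growth inhibition of TGBC1TKB cells, read out by a cell viability assay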
Description: SANGER: Inhibition of human TGBC1TKB cell growth in a cell viability assay.

[52] = test system: MFM-223
Description: SANGER: Inhibition of human MFM-223 cell growth in a cell viability assay.

[53] = test system: NCI-H82;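 further: growth inhibition of NCI-H82 cells, measured with a cell viability readout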
Description: SANGER: Inhibition of human NCI-H82 cell growth in a cell viability assay.

[54] = test system: TE-9;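 further: cell growth inhibition, measured with a cell viability readout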
Description: SANGER: Inhibition of human TE-9 cell growth in a cell viability assay.

[55] = test system: no-10;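 further: growth inhibition of no-10 cells, read out with a cell viability assay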
Description: SANGER: Inhibition of human no-10 cell growth in a cell viability assay.

[56] = test system: TE-5;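 further: inhibition of cell growth, read out by a cell viability assay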
Description: SANGER: Inhibition of human TE-5 cell growth in a cell viability assay.

[57] = test system: COLO-824
Description: SANGER: Inhibition of human COLO-824 cell growth in a cell viability assay.

[58] = test system: TE-11;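 further: growth inhibition of human TE-11 cells, read out by a cell viability assay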
Description: SANGER: Inhibition of human TE-11 cell growth in a cell viability assay.

[59] = test system: RXF 393;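 further: growth inhibition of human RXF 393 cells, read out with a cell viability assay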
Description: SANGER: Inhibition of human RXF393 cell growth in a cell viability assay.

[60] = test system: DJM-1;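 further: growth inhibition of human DJM-1 cells, read out by a cell viability assay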
Description: SANGER: Inhibition of human DJM-1 cell growth in a cell viability assay.

[61] = test system: MPP-89
Description: SANGER: Inhibition of human MPP-89 cell growth in a cell viability assay.

[62] = test system: ETK-1
Description: SANGER: Inhibition of human ETK-1 cell growth in a cell viability assay.

[63] = test system: PSN1
Description: SANGER: Inhibition of human PSN1 cell growth in a cell viability assay.

[64] = test system: CTB-1
Description: SANGER: Inhibition of human CTB-1 cell growth in a cell viability assay.

[65] = test system: SW684
Description: SANGER: Inhibition of human SW684 cell growth in a cell viability assay.

[66] = test system: CW-2
Description: SANGER: Inhibition of human CW-2 cell growth in a cell viability assay.

Fc1cc(-c2cc[nH]/c(=N/c3ccc(-n4cnc(N5CCOCC5)n4)cc3)n2)cc(N2CCOCC2)c1
IC50 [1]: > 5120 nM
IC50 [2]: 520 nM
IC50 [3]: 294 nM
IC50 [4]: 477 nM
IC50 [5]: 307 nM
IC50 [6]: 733 nM
IC50 [7]: 536 nM
IC50 [8]: > 5120 nM
IC50 [9]: 894 nM
IC50 [10]: 831 nM
IC50 [11]: 704 nM
IC50 [12]: 482 nM
IC50 [13]: 797 nM
IC50 [14]: 227 nM
IC50 [15]: 633 nM
IC50 [16]: 350 nM
IC50 [17]: 78.6 nM
IC50 [18]: 425 nM
IC50 [19]: 61.6 nM
IC50 [20]: 1090 nM
IC50 [21]: 539 nM
IC50 [22]: 1140 nM
IC50 [23]: 405 nM
IC50 [24]: > 5120 nM
IC50 [25]: 1180 nM
IC50 [26]: 1430 nM
IC50 [27]: 1970 nM
IC50 [28]: 4230 nM
IC50 [29]: 463 nM
IC50 [30]: 1990 nM
IC50 [31]: 1040 nM
IC50 [32]: 1100 nM
IC50 [33]: 205 nM
IC50 [34]: 3250 nM
IC50 [35]: 380 nM
IC50 [36]: 473 nM
IC50 [37]: 1140 nM
IC50 [38]: 972 nM
IC50 [39]: 736 nM
IC50 [40]: 1050 nM
IC50 [41]: 77.7 nM
IC50 [42]: > 5120 nM
IC50 [43]: 912 nM
IC50 [44]: 569 nM
IC50 [45]: 4280 nM
IC50 [46]: 390 nM
IC50 [47]: > 5120 nM
IC50 [48]: 325 nM
IC50 [49]: 631 nM
IC50 [50]: 1760 nM
IC50 [51]: 1880 nM
IC50 [52]: > 5120 nM
IC50 [53]: > 5120 nM
IC50 [54]: 69.2 nM
IC50 [55]: 1840 nM
IC50 [56]: 339 nM
IC50 [57]: 637 nM
IC50 [58]: 2390 nM
IC50 [59]: 66.9 nM
IC50 [60]: > 5120 nM
IC50 [61]: 3820 nM
IC50 [62]: 1060 nM
IC50 [63]: > 5120 nM
IC50 [64]: 1110 nM
IC50 [65]: 3040 nM
IC50 [66]: > 5120 nM

Cc1n[nH]c2ccc(-c3cncc(OC[C@@H](N)Cc4c[nH]c5ccccc45)c3)cc12 [A-443654]
IC50 [1]: > 1020 nM
IC50 [2]: > 1020 nM
IC50 [3]: 196 nM
IC50 [4]: 797 nM
IC50 [5]: 93.8 nM
IC50 [6]: > 1020 nM
IC50 [7]: 309 nM
IC50 [8]: 111 nM
IC50 [9]: 447 nM
IC50 [10]: 137 nM
IC50 [11]: > 1020 nM
IC50 [12]: > 1020 nM
IC50 [13]: 179 nM
IC50 [14]: 118 nM
IC50 [15]: 373 nM
IC50 [16]: 22.2 nM
IC50 [17]: 909 nM
IC50 [18]: > 1020 nM
IC50 [19]: 81.4 nM
IC50 [20]: 266 nM
IC50 [21]: 255 nM
IC50 [22]: 395 nM
IC50 [23]: 323 nM
IC50 [24]: 385 nM
IC50 [25]: 318 nM
IC50 [26]: > 1020 nM
IC50 [27]: 367 nM
IC50 [28]: > 1020 nM
IC50 [29]: 561 nM
IC50 [30]: > 1020 nM
IC50 [31]: 236 nM
IC50 [32]: 502 nM
IC50 [33]: 129 nM
IC50 [34]: > 1020 nM
IC50 [35]: 473 nM
IC50 [36]: 177 nM
IC50 [37]: > 1020 nM
IC50 [38]: 103 nM
IC50 [39]: 269 nM
IC50 [40]: > 1020 nM
IC50 [41]: 222 nM
IC50 [42]: 229 nM
IC50 [43]: 480 nM
IC50 [44]: 801 nM
IC50 [45]: 750 nM
IC50 [46]: 175 nM
IC50 [47]: > 1020 nM
IC50 [48]: > 1020 nM
IC50 [49]: 833 nM
IC50 [50]: 938 nM
IC50 [51]: 120 nM
IC50 [52]: > 1020 nM
IC50 [53]: 164 nM
IC50 [54]: 389 nM
IC50 [55]: 129 nM
IC50 [56]: 169 nM
IC50 [57]: > 1020 nM
IC50 [58]: 130 nM
IC50 [59]: 657 nM
IC50 [60]: 331 nM
IC50 [61]: 485 nM
IC50 [62]: 101 nM
IC50 [63]: 47.3 nM
IC50 [64]: 509 nM
IC50 [65]: > 1020 nM
IC50 [66]: > 1020 nM

CC[C@]1(O)C[C@@H]2CN(CCc3c([nH]c4ccccc34)[C@@](C(=O)OC)(c3cc4c(cc3OC)N(C)[C@H]3[C@@](O)(C(=O)OC)[C@H](OC(C)=O)[C@]5(CC)C=CCN6CC[C@]43[C@@H]65)C2)C1 [VINBLASTINE]
IC50 [1]: 3.88 nM
IC50 [2]: 19.2 nM
IC50 [3]: 4.32 nM
IC50 [4]: 6.98 nM
IC50 [5]: 40.9 nM
IC50 [6]: 10.1 nM
IC50 [7]: 25.9 nM
IC50 [8]: 10.9 nM
IC50 [9]: 4.53 nM
IC50 [10]: 6.16 nM
IC50 [11]: > 100 nM
IC50 [12]: 18.4 nM
IC50 [13]: 10.3 nM
IC50 [14]: 33.3 nM
IC50 [15]: 15.6 nM
IC50 [16]: 7.9 nM
IC50 [17]: 40.3 nM
IC50 [18]: 1.27 nM
IC50 [19]: 11.7 nM
IC50 [20]: 79.3 nM
IC50 [21]: > 100 nM
IC50 [22]: 2.12 nM
IC50 [23]: 1.41 nM
IC50 [24]: > 100 nM
IC50 [25]: > 100 nM
IC50 [26]: 13.8 nM
IC50 [27]: 14.1 nM
IC50 [28]: 37.2 nM
IC50 [29]: 7.86 nM
IC50 [30]: 3.34 nM
IC50 [31]: > 100 nM
IC50 [32]: 1.42 nM
IC50 [33]: 3.27 nM
IC50 [34]: 29.7 nM
IC50 [35]: > 100 nM
IC50 [36]: 9.66 nM
IC50 [37]: 56.3 nM
IC50 [38]: 1.87 nM
IC50 [39]: 42.3 nM
IC50 [40]: 23.5 nM
IC50 [41]: 8.57 nM
IC50 [42]: 2.75 nM
IC50 [43]: 80 nM
IC50 [44]: > 100 nM
IC50 [45]: > 100 nM
IC50 [46]: 69.8 nM
IC50 [47]: 12.6 nM
IC50 [48]: 5.75 nM
IC50 [49]: 53.3 nM
IC50 [50]: > 100 nM
IC50 [51]: 31.2 nM
IC50 [52]: > 100 nM
IC50 [53]: > 100 nM
IC50 [54]: 4.27 nM
IC50 [55]: > 100 nM
IC50 [56]: 6.14 nM
IC50 [57]: > 100 nM
IC50 [58]: 5.13 nM
IC50 [59]: 1.44 nM
IC50 [60]: > 100 nM
IC50 [61]: 30.3 nM
IC50 [62]: 5.79 nM
IC50 [63]: 1.25 nM
IC50 [64]: 1.64 nM
IC50 [65]: > 100 nM
IC50 [66]: > 100 nM
